Results from patent US20210024542A1 (Torcept Therapeutics, Inc., priority 2018, published 2021).
Where two headings read alike, the source gives them in different places.

How the values were obtained:
NCI-H510A = test: OncoPanel cell proliferation assay, NCI-H510A; format: cell-based, human
Procedure: (§1) Cells were grown in RPMI 1640, 10% FBS, 2 mM L-alanyl-L-glutamine, 1 mM Na pyruvate, or a special medium. Cells were seeded into 384-well plates and incubated in a humidified atmosphere of 5% CO2 at 37° C. Compounds were added the day following cell seeding. At the same time, a time zero untreated cell plate was generated. After a 3-day incubation period, cells were fixed and stained to allow fluorescence imaging of nuclei. Compounds (1 mM stock solutions) were serially diluted in half-log steps from the highest test concentration ([…]), and assayed over 10 concentrations with a maximum assay concentration of 0.1% DMSO. Automated fluorescence microscopy was carried out using a Molecular Devices ImageXpress Micro XL high-content imager, and images were collected with a 4× objective. 16-bit TIFF images were acquired and analyzed with MetaXpress 5.1.0.41 software.
(§2) Cell proliferation was measured by the fluorescence intensity of an incorporated nuclear dye. The output is referred to as the relative cell count, where the measured nuclear intensity is transformed to percent of control (POC) using the following formula: […]
(§3) Cellular response parameters were calculated using nonlinear regression to a sigmoidal single-site dose response model:
(§4) Where y is a response measured at concentration x, A and B are the lower and upper limits of the response, C is the concentration at the response midpoint (EC50), and D is the Hill Slope (Ref. 1).
(§5) EC50 is the test compound concentration at the curve inflection point or half the effective response (parameter C of the fitted curve solution). GI50 is the concentration needed to reduce the observed growth by half (midway between the curve maximum and the time zero value). “Cell Count Activity Area” is an estimate of the integrated area above the curve (Barretina, et al. The Cancer Cell Line Encyclopedia enables predictive modelling of anticancer drug sensitivity. Nature 483: 603-607). […] In rare instances, values <0 or >10 may be observed. […] Curve-fitting, calculations, and report generation was performed using a custom data reduction engine and MathIQ based software (AIM).

SK-N-AS = test: OncoPanel cell proliferation assay, SK-N-AS; format: cell-based, human
Procedure: as §1, §2, §3, §4, §5

ST486 = test: OncoPanel cell proliferation assay, ST486; format: cell-based, human; conditions: for Relative cell count (%) Mean: ST486
Procedure: as §1, §2, §3, §4, §5

RKOE6 = test: OncoPanel cell proliferation assay, RKOE6; conditions: for Relative cell count (%) Mean: RKOE6
Procedure: (§6) Cells were seeded into 384-well plates and incubated in a humidified atmosphere of 5% CO2 at 37° C. Compounds were added the day following cell seeding. At the same time, a time zero untreated cell plate was generated. After a 3-day incubation period, cells were fixed and stained to allow fluorescence imaging of nuclei. Compounds (1 mM stock solutions) were serially diluted in half-log steps from the highest test concentration (1 micromol), and assayed over 10 concentrations with a maximum assay concentration of 0.1% DMSO. Automated fluorescence microscopy was carried out using a Molecular Devices ImageXpress Micro XL high-content imager, and images were collected with a 4× objective. 16-bit TIFF images were acquired and analyzed with MetaXpress 5.1.0.41 software.
(§7) GI50 is the concentration needed to reduce the observed growth by half (midway between the curve maximum and the time zero value). […] In rare instances, values <0 or >10 may be observed. […] Curve-fitting, calculations, and report generation was performed using a custom data reduction engine and MathIQ based software (AIM).

CHP-212 = test: OncoPanel cell proliferation assay, CHP-212; conditions: for Relative cell count (%) Mean: CHP-212
Procedure: as §6, §7

SK-NEP-1 = test: OncoPanel cell proliferation assay, SK-NEP-1; conditions: for Relative cell count (%) Mean: SK-NEP-1
Procedure: as §6, §7

[1] = Homo sapiens, 72 h, 3-day incubation, read-out: Cell Count EC50
[2] = Homo sapiens, 72 h, 3-day incubation, read-out: Cell Count GI50
[3] = Homo sapiens, 72 h, 3-day incubation, read-out: Cell Count IC50

CO[C@H]1C[C@@H]2CC[C@@H](C)[C@@](O)(O2)C(=O)C(=O)N2CCCC[C@H]2C(=O)O[C@H]([C@H](C)C[C@@H]2C[C@@H]3C[C@H]2C[C@H]3O)CC(=O)[C@H](C)/C=C(\C)[C@@H](O)[C@@H](OC)C(=O)[C@H](C)C[C@H](C)/C=C/C=C/C=C/1C [Formula I, 37R-hydroxynorbornylrapamycin]
Relative cell count (%) Mean (NCI-H510A; 1.00E+00 microM): 66.2%
Relative cell count (%) Mean (NCI-H510A; 1.00E−01 microM): 62.8%
Relative cell count (%) Mean (NCI-H510A; 1.00E−02 microM): 69.5%
Relative cell count (%) Mean (NCI-H510A; 1.00E−03 microM): 68.9%
Relative cell count (%) Mean (NCI-H510A; 1.01E−04 microM): 77.7%
Relative cell count (%) Mean (NCI-H510A; 3.16E−01 microM): 66.3%
Relative cell count (%) Mean (NCI-H510A; 3.17E−02 microM): 64.7%
Relative cell count (%) Mean (NCI-H510A; 3.17E−03 microM): 72.2%
Relative cell count (%) Mean (NCI-H510A; 3.18E−04 microM): 70.5%
Relative cell count (%) Mean (NCI-H510A; 3.18E−05 microM): 75.7%
EC50 (NCI-H510A; [1]): 0.00399 nM
GI50 (NCI-H510A; [2]): 0.83 nM
IC50 (NCI-H510A; [3]): > 1000 nM
EC50 (NCI-H510A; Homo sapiens, Table 4 summary, Small cell lung cancer, read-out: EC50): 0.004 nM
Cell Count Activity Area (NCI-H510A; scale 0-10): 3.05
Relative cell count (%) Mean (SK-N-AS; 1.00E+00 microM): 45.8%
Relative cell count (%) Mean (SK-N-AS; 1.00E−01 microM): 51.0%
Relative cell count (%) Mean (SK-N-AS; 1.00E−02 microM): 53.6%
Relative cell count (%) Mean (SK-N-AS; 1.00E−03 microM): 62.3%
Relative cell count (%) Mean (SK-N-AS; 1.01E−04 microM): 84.8%
Relative cell count (%) Mean (SK-N-AS; 3.16E−01 microM): 48.3%
Relative cell count (%) Mean (SK-N-AS; 3.17E−02 microM): 52.4%
Relative cell count (%) Mean (SK-N-AS; 3.17E−03 microM): 56.7%
Relative cell count (%) Mean (SK-N-AS; 3.18E−04 microM): 77.7%
Relative cell count (%) Mean (SK-N-AS; 3.18E−05 microM): 102.1%
EC50 (SK-N-AS; [1]): 0.283 nM
GI50 (SK-N-AS; [2]): 0.826 nM
IC50 (SK-N-AS; [3]): 7.35 nM
Cell Count Activity Area (SK-N-AS; scale 0-10): 3.99
EC50 (ST486; Homo sapiens, 72 h, ST486, 3-day incubation, read-out: Cell Count EC50): 0.128 nM
GI50 (ST486; Homo sapiens, 72 h, ST486, 3-day incubation, read-out: Cell Count GI50): 0.226 nM
IC50 (ST486; Homo sapiens, 72 h, ST486, 3-day incubation, read-out: Cell Count IC50): > 1000 nM
Cell Count Activity Area (ST486; ST486, scale 0-10): 3.70
Relative cell count (%) Mean (ST486; 1.00E+00 microM): 50.5%
Relative cell count (%) Mean (ST486; 1.00E−01 microM): 58.5%
Relative cell count (%) Mean (ST486; 1.00E−02 microM): 56.8%
Relative cell count (%) Mean (ST486; 1.00E−03 microM): 61.1%
Relative cell count (%) Mean (ST486; 1.01E−04 microM): 81.6%
Relative cell count (%) Mean (ST486; 3.16E−01 microM): 51.1%
Relative cell count (%) Mean (ST486; 3.17E−02 microM): 54.8%
Relative cell count (%) Mean (ST486; 3.17E−03 microM): 56.0%
Relative cell count (%) Mean (ST486; 3.18E−04 microM): 63.3%
Relative cell count (%) Mean (ST486; 3.18E−05 microM): 90.7%
EC50 (RKOE6; Homo sapiens, RKOE6, 72 h, read-out: Cell Count EC50): 0.201 nM
GI50 (RKOE6; Homo sapiens, RKOE6, 72 h, read-out: Cell Count GI50): 1.07 nM
IC50 (RKOE6; Homo sapiens, RKOE6, 72 h, read-out: Cell Count IC50): 2.88 nM
Cell Count Activity Area (RKOE6; RKOE6, scale 0-10): 4.44
Relative cell count (%) Mean (RKOE6; 1.00E+00 microM): 41.6%
Relative cell count (%) Mean (RKOE6; 1.00E−01 microM): 43.0%
Relative cell count (%) Mean (RKOE6; 1.00E−02 microM): 47.6%
Relative cell count (%) Mean (RKOE6; 1.00E−03 microM): 55.7%
Relative cell count (%) Mean (RKOE6; 1.01E−04 microM): 73.6%
Relative cell count (%) Mean (RKOE6; 3.16E−01 microM): 41.0%
Relative cell count (%) Mean (RKOE6; 3.17E−02 microM): 42.9%
Relative cell count (%) Mean (RKOE6; 3.17E−03 microM): 52.5%
Relative cell count (%) Mean (RKOE6; 3.18E−04 microM): 66.1%
Relative cell count (%) Mean (RKOE6; 3.18E−05 microM): 92.5%
Cell Count Activity Area (CHP-212; CHP-212, scale 0-10): 3.70
Relative cell count (%) Mean (CHP-212; 1.00E−01 microM): 49.6%
Relative cell count (%) Mean (CHP-212; 1.00E−02 microM): 52.8%
Relative cell count (%) Mean (CHP-212; 1.00E−03 microM): 56.6%
Relative cell count (%) Mean (CHP-212; 1.01E−04 microM): 70.6%
Relative cell count (%) Mean (CHP-212; 3.16E−01 microM): 45.9%
Relative cell count (%) Mean (CHP-212; 3.17E−02 microM): 49.0%
Relative cell count (%) Mean (CHP-212; 3.17E−03 microM): 55.3%
Relative cell count (%) Mean (CHP-212; 3.18E−04 microM): 63.3%
Relative cell count (%) Mean (CHP-212; 3.18E−05 microM): 86.7%
EC50 (CHP-212; Homo sapiens, CHP-212, 72 h, read-out: Cell Count EC50): 0.0918 nM
GI50 (CHP-212; Homo sapiens, CHP-212, 72 h, read-out: Cell Count GI50): 0.125 nM
IC50 (CHP-212; Homo sapiens, CHP-212, 72 h, read-out: Cell Count IC50): 19.3 nM
EC50 (SK-NEP-1; Homo sapiens, SK-NEP-1, 72 h, read-out: Cell Count EC50): 0.706 nM
GI50 (SK-NEP-1; Homo sapiens, SK-NEP-1, 72 h, read-out: Cell Count GI50): 0.747 nM
IC50 (SK-NEP-1; Homo sapiens, SK-NEP-1, 72 h, read-out: Cell Count IC50): 2.42 nM
Cell Count Activity Area (SK-NEP-1; SK-NEP-1, scale 0-10): 4.35
Relative cell count (%) Mean (SK-NEP-1; 1.00E+00 microM): 35.6%
Relative cell count (%) Mean (SK-NEP-1; 1.00E−01 microM): 38.6%
Relative cell count (%) Mean (SK-NEP-1; 1.00E−02 microM): 45.3%
Relative cell count (%) Mean (SK-NEP-1; 1.00E−03 microM): 63.5%
Relative cell count (%) Mean (SK-NEP-1; 1.01E−04 microM): 100.0%
Relative cell count (%) Mean (SK-NEP-1; 3.16E−01 microM): 35.6%
Relative cell count (%) Mean (SK-NEP-1; 3.17E−02 microM): 40.0%
Relative cell count (%) Mean (SK-NEP-1; 3.17E−03 microM): 48.8%
Relative cell count (%) Mean (SK-NEP-1; 3.18E−04 microM): 83.9%
Relative cell count (%) Mean (SK-NEP-1; 3.18E−05 microM): 99.4%
